Results taken from US20250382261A1 (The Broad Institute, Inc., priority 2021, published 2025).

How the values were obtained:
[1] = HEK293 cytotoxicity assay (Cell Titer Glo); type: cell-based; conditions: human, HEK293T Cytotoxicity (IC50, μg/mL)
Procedure: Cytotoxicity Assays. HEK293 (ATCC CRL 1573) cells were left to adhere for 18 h at 7.5×10^3 cells per well in DMEM containing 10% FBS and 2 mM L-glutamine. Compound was added directly into the well. After 48 h of treatment Promega Cell Titer Glo 2.0® was added, shaken for 10 min, and luminescence read (Biotek Neo). AC50 values were calculated using a four-parameter logistic curve in GraphPad Prism 9.
Focusing on only the analogs that retained synergistic activity with novobiocin (FICI≤0.5), half-maximal activity (AC50) values were calculated against HEK293 cells using a CellTiter-Glo® based assay to approximate cell viability. […] Specifically, the FICI value for both P35 and P36 was 0.094 against A. baumannii, while their AC50 values were 235 μg/mL and 200 μg/mL, respectively.

P. aeruginosa (PA01) = experiment: Checkerboard potentiation assay with novobiocin; type: cell-based
Procedure: (§1) Bacterial strains and culture conditions. The following bacterial strains were used within this study; A. baumannii (ATCC 17978), K. pneumoniae (ATCC 43816), K. pneumoniae (ATCC 43816, expressing pGDP2:mcr-1), P. aeruginosa (PA01). Bacterial growth was in cation-adjusted Mueller-Hinton broth (MHB) at 37° C., and inoculum was prepared according to CLSI protocol (CLSI 2015).
(§2) Potentiation assays. Checkerboard analyses were conducted with each drug serially diluted at eight concentrations to create an 8×8 matrix. At least two biological replicates were done for each combination, and the means were used for FIC calculation. The FIC for each drug was calculated by dividing the concentration of the drug in the presence of codrug in a combination for a well showing <10% growth by the MIC for that drug alone. The FIC index (FICI) is the sum of the two FICs, with an FIC index≤0.5 deemed synergistic.
(§3) To probe the spectrum of activity of the present analogs beyond A. baumannii, their interactions with novobiocin were assessed against the high-priority Gram-negative pathogens Klebsiella pneumoniae and P. aeruginosa (FIG. 5).

[2] = tested on: K. pneumoniae (ATCC 43816); experiment: Checkerboard potentiation assay with novobiocin; type: cell-based
Procedure: as §1, §2, §3

[3] = tested on: A. baumannii (ATCC 17978); experiment: Checkerboard potentiation assay with novobiocin; type: cell-based; conditions: with novobiocin
Procedure: as §1, §2

LPS from E. coli EH100 = experiment: BODIPY-Cadaverine LPS displacement assay; type: binding; conditions: BODIPY-cadaverine displacement from E. coli EH100 LPS
Procedure: BODIPY-Cadaverine LPS displacement assay. The BODIPY-cadaverine LPS displacement assay was performed as previously described (Wood et al. 2004. Combinatorial Chemistry & High Throughput Screening, 7: 239-49; Klobucar et al. 2021. ACS Chemical Biology, 16: 929-42). A solution of BODIPY-cadaverine (2.25 μM) and LPS from E. coli EH100 (5.25 μM) in Tris-HCl buffer (50 mM, pH 7.4) was prepared. 0.5 μL of compound and 49.5 μL of the Tris-HCl buffer with BODIPY-cadaverine and LPS solution were added to a Corning nonbinding surface black 384-well polystyrene plate. Fluorescence intensity was measured immediately with an excitation wavelength of 580 nm and an emission wavelength of 620 nm. EC50 values were calculated using a three-parameter logistic curve in GraphPad Prism 9.

N=C(N)c1ccc(OCCC2(CCOc3ccc(C(=N)N)cc3)CCCC2)cc1 [Analog P02]
IC50 at 48 h [1]: 15.3 µg/mL | FICI PA (P. aeruginosa (PA01)): 0.281 | FICI KP [2]: 0.187 | FICI AB [3]: 0.156 | LPS Displacement (EC50, μg/mL) (LPS from E. coli EH100): 77.29 µg/mL

N=C(N)c1ccc(OCCC2(CCOc3ccc(C(=N)N)cc3)CCCCC2)cc1 [Analog P03]
FICI PA (P. aeruginosa (PA01)): 0.625 | FICI KP [2]: 0.078 | FICI AB [3]: 0.094

c1c[nH]c(-c2ccc(OCCCCCOc3ccc(-c4ncc[nH]4)cc3)cc2)n1 [Analog P11]
IC50 at 48 h [1]: 104 µg/mL | FICI PA (P. aeruginosa (PA01)): 2 | FICI KP [2]: 2

C[C@@H](CCC[C@H](C)Oc1ccc(C(=N)N)cc1)Oc1ccc(C(=N)N)cc1 [Analog P15A]
IC50 at 48 h [1]: 106 µg/mL | FICI PA (P. aeruginosa (PA01)): 0.5 | FICI KP [2]: 0.25 | LPS Displacement (EC50, μg/mL) (LPS from E. coli EH100): 118.2 µg/mL

C[C@H](CCC[C@H](C)Oc1ccc(C(=N)N)cc1)Oc1ccc(C(=N)N)cc1 [Analog P15B]
IC50 at 48 h [1]: 239 µg/mL | FICI PA (P. aeruginosa (PA01)): 0.187 | FICI KP [2]: 0.187 | LPS Displacement (EC50, μg/mL) (LPS from E. coli EH100): 132.5 µg/mL

C[C@H](CCC[C@@H](C)Oc1ccc(C(=N)N)cc1)Oc1ccc(C(=N)N)cc1 [Analog P15C]
FICI PA (P. aeruginosa (PA01)): 0.375 | FICI KP [2]: 0.25 | LPS Displacement (EC50, μg/mL) (LPS from E. coli EH100): 148.8 µg/mL

CC(CCCC(C)Oc1ccc(C(=N)N)cc1)Oc1ccc(C(=N)N)cc1 (stereo not shown) [Analog P15]
FICI PA (P. aeruginosa (PA01)): 0.281 | FICI KP [2]: 0.25

N=C(NC1CCCCC1)c1ccc(OCCCCCOc2ccc(C(=N)NC3CCCCC3)nc2)cn1 [Analog P18]
IC50 at 48 h [1]: 22.2 µg/mL | FICI PA (P. aeruginosa (PA01)): 2 | FICI KP [2]: 1 | LPS Displacement (EC50, μg/mL) (LPS from E. coli EH100): 218.8 µg/mL

N/C(=N\O)c1ccc(OCCCCCOc2ccc(/C(N)=N/O)nc2)cn1 [Analog P19]
IC50 at 48 h [1]: 135 µg/mL | FICI PA (P. aeruginosa (PA01)): 2 | FICI KP [2]: 2

N=C(N)c1ccc(OCCCCCOc2ccc(C(=N)N)cn2)nc1 [Analog P20]
IC50 at 48 h [1]: > 320 µg/mL | FICI PA (P. aeruginosa (PA01)): 2 | FICI KP [2]: 0.25 | FICI AB [3]: 0.25

C[C@@H](CCCOc1ccc(C(=N)N)cc1)COc1ccc(C(=N)N)cc1 [Analog P22R]
IC50 at 48 h [1]: 94.2 µg/mL | FICI PA (P. aeruginosa (PA01)): 0.3125 | FICI KP [2]: 0.25 | LPS Displacement (EC50, μg/mL) (LPS from E. coli EH100): 26.02 µg/mL

C[C@H](CCCOc1ccc(C(=N)N)cc1)COc1ccc(C(=N)N)cc1 [Analog P22S]
IC50 at 48 h [1]: 53.7 µg/mL | FICI PA (P. aeruginosa (PA01)): 0.375 | FICI KP [2]: 0.25 | LPS Displacement (EC50, μg/mL) (LPS from E. coli EH100): 59.08 µg/mL

N=C(N)c1ccc(OCCC[C@@H]2CCCN(c3ccc(C(=N)N)cc3)C2)cc1 [Analog P24A]
IC50 at 48 h [1]: 77.9 µg/mL | FICI PA (P. aeruginosa (PA01)): 0.375 | FICI KP [2]: 0.187 | LPS Displacement (EC50, μg/mL) (LPS from E. coli EH100): 91.74 µg/mL

N=C(N)c1ccc(OCCC[C@H]2CCCN(c3ccc(C(=N)N)cc3)C2)cc1 [Analog P24B]
IC50 at 48 h [1]: 57.9 µg/mL | FICI PA (P. aeruginosa (PA01)): 0.75 | FICI KP [2]: 0.187 | LPS Displacement (EC50, μg/mL) (LPS from E. coli EH100): 149.5 µg/mL

N=C(N)c1ccc(OCCNCCOc2ccc(C(=N)N)cc2)cc1 [Analog P31A]
IC50 at 48 h [1]: > 640 µg/mL | FICI PA (P. aeruginosa (PA01)): 2 | FICI AB [3]: 0.5 | LPS Displacement (EC50, μg/mL) (LPS from E. coli EH100): 497.8 µg/mL

N=C(N)c1ccc(OCCN(CCOc2ccc(C(=N)N)cc2)CCC(F)(F)F)cc1 [Analog P34]
IC50 at 48 h [1]: > 80 µg/mL | FICI PA (P. aeruginosa (PA01)): 0.375 | FICI AB [3]: 0.25 | LPS Displacement (EC50, μg/mL) (LPS from E. coli EH100): 134.3 µg/mL

N=C(N)c1ccc(OCCC(N)CCOc2ccc(C(=N)N)cc2)cc1 (stereo not shown) [Analog P37]
FICI PA (P. aeruginosa (PA01)): 2 | FICI AB [3]: 0.75

N=C(N)c1ccc(OCCC(CCOc2ccc(C(=N)N)cc2)N2CCCC2)cc1 (stereo not shown) [Analog P38]
IC50 at 48 h [1]: > 80 µg/mL | FICI PA (P. aeruginosa (PA01)): 2 | FICI AB [3]: 0.75 | LPS Displacement (EC50, μg/mL) (LPS from E. coli EH100): 202 µg/mL

N=C(N)c1ccc(OCCC2(CCOc3ccc(C(=N)N)cn3)CCCC2)nc1 [Analog P39]
IC50 at 48 h [1]: 53.7 µg/mL | FICI PA (P. aeruginosa (PA01)): 0.3125 | FICI AB [3]: 0.094 | LPS Displacement (EC50, μg/mL) (LPS from E. coli EH100): 48.34 µg/mL

colistin [reference compound]
LPS Displacement (EC50, μg/mL) (LPS from E. coli EH100): 7.81 µg/mL
